PMC10745768, “Stereoselective Synthesis and Antiproliferative Activity of Steviol-Based Diterpene 1,3-Aminoalcohol Regioisomers” (Molecules, 2023)
Read-outs that look alike come from different tables or passages of the source.

How the values were obtained:
MCF-7 cells [1] = system: MCF-7 cells; parameters: method as in earlier work; conditions: ref 24 (Bai D, Int J Mol Sci 2023, 10.3390/ijms24021121), cited from earlier work
HeLa cells [2] = system: HeLa cells; parameters: method as in earlier work; conditions: ref 24 (Bai D, Int J Mol Sci 2023, 10.3390/ijms24021121), cited from earlier work
NIH/3T3 fibroblast cells [3] = system: NIH/3T3 fibroblast cells; parameters: method as in earlier work; conditions: ref 24 (Bai D, Int J Mol Sci 2023, 10.3390/ijms24021121), cited from earlier work
SiHa cells [4] = system: SiHa cells; parameters: method as in earlier work; conditions: ref 24 (Bai D, Int J Mol Sci 2023, 10.3390/ijms24021121), cited from earlier work
MDA-MB-231 cells [5] = system: MDA-MB-231 cells; parameters: method as in earlier work; conditions: ref 24 (Bai D, Int J Mol Sci 2023, 10.3390/ijms24021121), cited from earlier work
A2780 cells [6] = system: A2780 cells; parameters: method as in earlier work; conditions: ref 24 (Bai D, Int J Mol Sci 2023, 10.3390/ijms24021121), cited from earlier work
HeLa cells [7] = assay: MTT antiproliferative assay, HeLa; assay type: cell-based; conditions: Homo sapiens, 72 h; for inhibition at 10 µM / inhibition at 30 µM: read-out: Growth inhibition (%) ± SEM; for IC50: read-out: calculated IC50
Method in brief: (§1)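 72 h exposure, 10 µM and 30 µM; MTT 4 h; formazan in DMSO, A545. IC50 by sigmoid fit. n = 2 independent runs × 5 wells.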

MCF-7 cells [8] = assay: MTT antiproliferative assay, MCF-7; assay type: cell-based; conditions: Homo sapiens, MCF7; for inhibition at 10 µM: MCF-7, 10 μM; for inhibition at 10 µM / inhibition at 30 µM: 72 h, read-out: Growth inhibition (%) ± SEM; for inhibition at 30 µM: MCF-7, 30 μM; for IC50: MCF-7, 72 h, read-out: calculated IC50
Method in brief: as §1

SiHa cells [9] = assay: MTT antiproliferative assay, SiHa; assay type: cell-based; conditions: Homo sapiens, 72 h; for inhibition at 10 µM / inhibition at 30 µM: read-out: Growth inhibition (%) ± SEM; for IC50: read-out: calculated IC50
Method in brief: as §1

[10] = system: cancer cells and fibroblasts (HeLa, SiHa, MCF-7, MDA-MB-231, A2780, NIH/3T3); assay: MTT antiproliferative assay, cancer cells and fibroblasts; assay type: cell-based; conditions: Fibroblast; range over all six cell lines; read-out: IC50 values against both the cancer cells and fibroblasts
Protocol: The in vitro anticancer effects of the presented compounds were assessed using the standard MTT [3-(4,5-dimethylthiazol2-yl)-2,5-diphenyltetrazolium bromide] assay on the following human cancer cell lines: cervical (HeLa and SiHa), breast (MCF-7 and MDA-MB-231) and ovarian cancer (A2780). The selectivity of the tested compounds was determined on murine embryonal fibroblast cells (NIH/3T3). The utilised cell lines were purchased from the European Collection of Cell Cultures (Salisbury, UK). The cells were cultivated in Eagle’s minimal essential medium supplemented with 10% fetal bovine serum, 1% non-essential amino acids and 1% antibiotic-antimycotic complex (penicillin, streptomycin, amphotericin B) at 37 °C in a humidified atmosphere containing 5% CO2. All media and supplements were purchased from Lonza Group Ltd. (Basel, Switzerland). The cancer cells were seeded into 96-well plates (5000 cells/well) and incubated overnight, and the test compounds were applied in two different concentrations (10 µM and 30 µM) and incubated for another 72 h under cell-culturing conditions. […] After 72 h, 20 µL of the 5 mg/mL MTT solution was added to each well, and the plates were incubated for 4 h. […] The absorbances were measured at 545 nm using a microplate reader (SPECTROStar Nano, BMG Labtech, Offenburg, Germany). […] The IC50 values were calculated using sigmoid curve fitting. […]

A2780 cells [11] = assay: MTT antiproliferative assay, A2780; assay type: cell-based; conditions: Homo sapiens; for IC50: A2780, 72 h, read-out: calculated IC50; for inhibition at 10 µM: A2780, 10 μM; for inhibition at 10 µM / inhibition at 30 µM: 72 h, read-out: Growth inhibition (%) ± SEM; for inhibition at 30 µM: A2780, 30 μM
Method in brief: as §1

MDA-MB-231 cells [12] = assay: MTT antiproliferative assay, MDA-MB-231; assay type: cell-based; conditions: Homo sapiens; for IC50: MDA-MB-231, 72 h, read-out: calculated IC50; for inhibition at 10 µM: MDA-MB-231, 10 μM; for inhibition at 10 µM / inhibition at 30 µM: 72 h, read-out: Growth inhibition (%) ± SEM; for inhibition at 30 µM: MDA-MB-231, 30 μM
Method in brief: as §1

NIH/3T3 fibroblast cells [13] = assay: MTT assay on non-malignant fibroblasts (selectivity); assay type: cell-based, murine; conditions: Mus musculus, NIH3T3; for inhibition at 10 µM: NIH/3T3, 10 μM; for inhibition at 10 µM / inhibition at 30 µM: 72 h, read-out: Growth inhibition (%) ± SEM; for inhibition at 30 µM: NIH/3T3, 30 μM; for IC50: NIH/3T3, 72 h, read-out: calculated IC50
Method in brief: as §1

| SMILES | inhibition at 10 µM (HeLa cells [7]) [%] | inhibition at 30 µM (HeLa cells [7]) [%] | IC50 (HeLa cells [7]) [µM] | inhibition at 10 µM (MCF-7 cells [8]) [%] | inhibition at 30 µM (MCF-7 cells [8]) [%] | IC50 (MCF-7 cells [8]) [µM] | inhibition at 10 µM (SiHa cells [9]) [%] | inhibition at 30 µM (SiHa cells [9]) [%] | IC50 (SiHa cells [9]) [µM] | IC50 [10] [µM] | IC50 (A2780 cells [11]) [µM] | inhibition at 10 µM (A2780 cells [11]) [%] | inhibition at 30 µM (A2780 cells [11]) [%] | IC50 (MDA-MB-231 cells [12]) [µM] | inhibition at 10 µM (MDA-MB-231 cells [12]) [%] | inhibition at 30 µM (MDA-MB-231 cells [12]) [%] | inhibition at 10 µM (NIH/3T3 fibroblast cells [13]) [%] | inhibition at 30 µM (NIH/3T3 fibroblast cells [13]) [%] | IC50 (NIH/3T3 fibroblast cells [13]) [µM] | other results |
| --- | --- | --- | --- | --- | --- | --- | --- | --- | --- | --- | --- | --- | --- | --- | --- | --- | --- | --- | --- | --- |
| N.N.[Cl][Pt][Cl] [Cisplatin, cisplatin] |  |  |  |  |  |  |  |  |  |  |  |  |  |  |  |  |  |  |  | Growth inhibition (%) ± SEM (MCF-7 cells [1]; MCF-7, 10 μM): 53.03 ± 2.29%; Growth inhibition (%) ± SEM (MCF-7 cells [1]; MCF-7, 30 μM): 86.90 ± 1.22%; Growth inhibition (%) ± SEM (HeLa cells [2]; 10 μM): 42.61 ± 2.33%; Growth inhibition (%) ± SEM (HeLa cells [2]; 30 μM): 99.93 ± 0.26%; Growth inhibition (%) ± SEM (NIH/3T3 fibroblast cells [3]; NIH/3T3, 10 μM): 73.88 ± 1.63%; Growth inhibition (%) ± SEM (NIH/3T3 fibroblast cells [3]; NIH/3T3, 30 μM): 97.10 ± 0.15%; Growth inhibition (%) ± SEM (SiHa cells [4]; 10 μM): 60.98 ± 0.92%; Growth inhibition (%) ± SEM (SiHa cells [4]; 30 μM): 88.95 ± 0.53%; Growth inhibition (%) ± SEM (MDA-MB-231 cells [5]; MDA-MB-231, 10 μM): 67.51 ± 1.01%; Growth inhibition (%) ± SEM (MDA-MB-231 cells [5]; MDA-MB-231, 30 μM): 87.75 ± 1.10%; Growth inhibition (%) ± SEM (A2780 cells [6]; A2780, 10 μM): 83.57 ± 1.21%; Growth inhibition (%) ± SEM (A2780 cells [6]; A2780, 30 μM): 95.02 ± 0.28% |
| COC(=O)[C@]1(C)CCC[C@@]2(C)[C@@H]3CC[C@@]4(CNCc5ccc(F)cc5)C[C@]3(CC[C@@H]21)C[C@H]4O [Compound 23, (4R,4aS,6aR,8R,9S,11aR,11bS)-Methyl 9-(((4-fluorobenzyl)amino)methyl)-8-hydroxy-4,11b-dimethyltetradecahydro-6a,9-methanocyclohepta[a]naphthalene-4-carboxylate] | 70.1 ± 1.97 | 90.41 ± 0.78 | 5.07 | 95.81 ± 0.84 | 95.3 ± 1.05 | 1.59 | 68.1 ± 1.85 | 80.5 ± 3.16 | 4.41 | 1.59 to 5.15 | 4.39 | 80 ± 1.6 | 95.71 ± 0.58 | 3.28 | 92.99 ± 0.39 | 91.4 ± 0.39 | 81.8 ± 3.07 | 93.62 ± 0.77 | 5.15 |  |
| COC(=O)[C@]1(C)CCC[C@@]2(C)[C@@H]3CC[C@@]4(CNCc5ccc(OC)cc5)C[C@]3(CC[C@@H]21)C[C@H]4O [Compound 32, (4R,4aS,6aR,8R,9S,11aR,11bS)-Methyl 8-hydroxy-9-(((4-methoxybenzyl)amino)methyl)-4,11b-dimethyltetradecahydro-6a,9-methanocyclohepta[a]naphthalene-4-carboxylate] | 97.09 ± 0.79 | 97.18 ± 0.76 | 3.09 | 99.59 ± 0.13 | 99.88 ± 0.23 | 1.04 | 95.6 ± 2.12 | 96.5 ± 1.09 | 5.77 | 1.04 to 5.77 | 3.78 | 97.94 ± 0.6 | 98.01 ± 0.6 | 2.3 | 97.12 ± 0.6 | 96.3 ± 1.02 | 96.93 ± 0.92 | 96.6 ± 1.05 | 3.71 |  |
